{
  "source": "patent US20220273768A1",
  "about": "(The George Washington University, priority 2019, published 2022)",
  "key": {"[1]": {"tested_on": "hypoglossal motoneurons (HGN)", "test": "Excitatory post-synaptic currents in HGNs evoked by photoexcitation of ChR2 fibers from LepR^b+ neurons", "assay_type": "cell-based, mouse"}, "[2]": {"tested_on": "hypoglossal motoneurons (HGN)", "test": "HGN firing per fictive inspiratory burst in bursting slice preparation", "assay_type": "cell-based, mouse", "details": "DAMGO 500 nM; then leptin 200 nM with DAMGO; prior to DAMGO 3-5"}, "[3]": {"tested_on": "hypoglossal neurons (HGNs)", "test": "Excitatory post-synaptic currents (EPSCs) recorded in vitro from HGNs", "assay_type": "cell-based, mouse", "details": "for spontaneous excitatory post-synaptic currents (EPSCs) in HGNs: FIG. 7, DAMGO then leptin added to DAMGO; for EPSC frequency in HGNs: FIG. 16, n=7, DAMGO focally applied, then 200 nM leptin co-infusion"}, "[4]": {"tested_on": "DIO C57BL/6J mice"}, "[5]": {"test": "Leptin detection in brain tissue by ELISA after IN administration", "assay_type": "in vivo, mouse", "details": "IN leptin 0.8 mg/kg in 1% BSA, 20 minutes, vs IN vehicle", "description": "To determine the effect of intranasal (IN) leptin in the brain, leptin detection in brain tissue by ELISA was assessed after IN administration. In brief, male lean C57BL/6J mice (30 g of weight), were treated with IN leptin (24 μl) at 0.8 mg/kg in 1% BSA or 1% BSA and sacrificed 20 minutes later. Brains were extracted, then the olfactory bulbs, hypothalami and medullas were isolated, quick frozen in liquid nitrogen and stored at −80° C. For leptin level measurements, brain tissue was homogenized in 160 mM KCL, 25 mM HEPES, 0.2% Triton X-100 and protease inhibitors. Total protein concentrations were determined using a BioRad DC Protein kit and ELISA for leptin was performed with a Millipore kit."}, "[6]": {"tested_on": "STAT3 phosphorylation (pSTAT3) via LepR^b", "test": "Leptin signaling by STAT3 phosphorylation (pSTAT3) immunofluorescent staining of brain sections", "assay_type": "in vivo, mouse", "details": "DIO mice"}, "[7]": {"tested_on": "DIO C57BL/6J mice", "test": "Sleep study (plethysmography) in diet-induced obese mice, mouse model of OSA", "assay_type": "in vivo", "details": "IN leptin 0.4 mg/kg single dose"}, "[8]": {"tested_on": "LepR^b+ neurons in the dorsomedial hypothalamus (DMH)", "assay_type": "cell-based, mouse"}, "[9]": {"test": "Plasma leptin levels after IN and IP leptin", "assay_type": "in vivo, mouse", "details": "IN leptin, 1, 3 and 6 hours vs baseline, n=4", "description": "FIG. 18 depicts a graph showing plasma leptin levels measured 1, 3, and 6 hours after IN and IP leptin administrations, as compared to baseline, n=4, for each treatment. *p<0.05."}, "[10]": {"tested_on": "lean C57BL/6J mice", "test": "Blood pressure by telemetry during SC leptin infusion", "assay_type": "in vivo, mouse", "description": "Blood pressure was measured by telemetry (DSI) implanted in the left femoral artery of freely behaving lean C57BL/6J mice at baseline and during leptin infusion (120 μg/day for 3 days via a SC pump) before and after carotid body (CB) denervation or sham surgery."}, "[11]": {"tested_on": "lean C57BL/6J mice", "test": "Barometric plethysmography during subcutaneous leptin infusion in lean mice", "assay_type": "in vivo, mouse", "details": "SC osmotic pump leptin 0.2 mg/kg/hour", "excerpt": "Leptin increases minute ventilation, stimulates control of breathing and reverses UAO during sleep in leptin deficient ob/ob mice as shown in Pho et al., Journal of Applied Physiology 120, 78-86 (2016); Yao et al., Sleep 39, 1097-106 (2016); and O'Donnell et al., American Journal of Respiratory & Critical Care Medicine 159, 1477-1484 (1999), the disclosures of which are incorporated herein in their entirety. As such, it was proposed that high doses of leptin also stimulate ventilation and control of breathing in lean C57BL/6J mice. […] In six mice, a subcutaneous osmotic pump (DURECT, Cupertino, Calif., USA) filled with saline was implanted and baseline minute ventilation (VE) and the hypoxic ventilatory response (HVR) were measured by exposing mice to room air and 10% O2. […] VE normalized to body weight and the hypoxic ventilatory response (HVR) was calculated as the ratio of [VE (10% O2)−VE (20.9% O2) to the change in FiO2 (ΔFiO2=10.9% between normoxia and hypoxia) and reported as ΔVE/ΔFiO2. Subsequently, a subcutaneous osmotic pump for leptin infusion (0.2 mg/kg/hour) was implanted and the HVR was measured. […]"}, "[12]": {"details": "SC leptin 120 μg/day for 3 days"}},
  "note": "Like-named read-outs stand apart in the source and are kept apart here.",
  "data": [
    {"molecule": "N[C@H](CCCP(=O)(O)O)C(=O)O", "note": "[APV, (2R)-amino-5-phosphonovaleric acid]", "values": [
      {"measurement": "photoexcitation-evoked excitatory post-synaptic currents in HGNs", "setting": "[1]", "result": "blunted, but not blocked"}
    ]},
    {"molecule": "N#Cc1cc2c(cc1[N+](=O)[O-])=NC(=O)C(=O)N=2", "note": "[CNQX, 6-cyano-7-nitroquinoxaline-2,3-dione]", "values": [
      {"measurement": "photoexcitation-evoked excitatory post-synaptic currents in HGNs", "setting": "[1]; 50 μM APV and 50 μM CNQX applied together", "result": "blunted, but not blocked"}
    ]},
    {"molecule": "C[C@@H](NC(=O)[C@@H](N)Cc1ccc(O)cc1)C(=O)NCC(=O)N(C)[C@@H](Cc1ccccc1)C(=O)NCCO", "note": "[DAMGO, [D-Ala^2, N-MePhe^4, Gly-ol]-enkephalin, reference compound]", "values": [
      {"measurement": "action potentials in HGNs associated with each burst", "setting": "[2]", "result": "2-3 action potentials"},
      {"measurement": "spontaneous excitatory post-synaptic currents (EPSCs) in HGNs", "setting": "[3]", "result": "rapidly depressed"},
      {"measurement": "EPSC frequency in HGNs", "setting": "[3]", "result": "significantly reduced"}
    ]},
    {"molecule": "CN1CC[C@]23c4c5ccc(O)c4O[C@H]2[C@@H](O)C=C[C@H]3[C@H]1C5", "note": "[morphine, reference compound]", "values": [
      {"measurement": "IFL prevalence (frequency of upper airway obstruction)", "setting": "[4]; FIG. 3B experiment, DIO mice n=4, morphine 10 mg/kg", "result": "39.6±9.3 % of all breaths"},
      {"measurement": "maximal inspiratory flow (Vimax) during IFL", "setting": "[4]; FIG. 3C, DIO mice n=4, morphine 10 mg/kg", "result": "decreasing"},
      {"measurement": "minute ventilation during IFL (VE IFL)", "setting": "[4]; FIG. 3D, DIO mice n=4, morphine 10 mg/kg", "result": "decreasing"},
      {"measurement": "respiratory rate during NFL breathing", "setting": "[4]; FIG. 3E experiment, morphine 10 mg/kg", "result": "decreased"},
      {"measurement": "non-flow limited breathing (NFL), respiratory depression", "setting": "[4]; FIG. 3E, DIO mice n=4, morphine 10 mg/kg", "result": "suppressed"},
      {"measurement": "respiratory depression (minute ventilation, VE)", "setting": "[4]; IP morphine 80 mg/kg, DIO mice", "result": "induced respiratory depression"},
      {"measurement": "number of apneic events during NREM sleep", "setting": "[4]; NREM sleep, n=9, morphine 10 mg/kg, baseline 13.9±3.7", "result": "91.5±20.0"},
      {"measurement": "frequency of upper airway obstruction (IFL breaths), NREM sleep", "setting": "[4]; morphine 10 mg/kg, baseline 11.9±5.5%", "result": "56.8±4.8 % of all breaths"},
      {"measurement": "minute ventilation during obstructed (IFL) breathing, NREM sleep", "setting": "[4]; n=5, morphine 10 mg/kg", "result": "significantly decreased"},
      {"measurement": "maximal inspiratory flow (Vimax) during obstructed (IFL) breathing, NREM sleep", "setting": "[4]; n=5, morphine 10 mg/kg, baseline 3.4±0.4", "result": "2.3 ± 0.5", "unit": "mL/min"},
      {"measurement": "minute ventilation (VE), non-flow limited respiration, NREM sleep", "setting": "[4]; n=9, morphine 10 mg/kg, baseline 1.2±0.1", "result": "0.7 ± 0.1", "unit": "mL/min/g"},
      {"measurement": "inspiratory flow limitation (IFL)", "setting": "[4]; sub-lethal IP morphine 80 mg/kg, DIO mice", "result": "induced severe inspiratory flow limitation"}
    ]},
    {"molecule": "leptin", "values": [
      {"measurement": "leptin levels in the hypothalamus", "setting": "[5]", "result": "strong increase"},
      {"measurement": "leptin levels in the medulla", "setting": "[5]", "result": "significantly increased"},
      {"measurement": "leptin levels in the olfactory bulb", "setting": "[5]", "result": "significantly increased"},
      {"measurement": "IFL prevalence (frequency of upper airway obstruction)", "setting": "[4]; mouse, in vivo", "result": "decreased"},
      {"measurement": "apnea-hypopnea index (AHI)", "setting": "[4]; mouse, in vivo", "result": "dramatically reduced"},
      {"measurement": "frequency of upper airway obstruction (IFL breaths), NREM sleep", "setting": "[4]; mouse, in vivo", "result": "decreased"},
      {"measurement": "inspiratory flow limitation (IFL)", "setting": "[4]; mouse, in vivo", "result": "markedly improved"},
      {"measurement": "leptin effects on apneas, VE, IFL frequency, VImax and VE during IFL", "setting": "[4]; mouse, in vivo", "result": "no longer significant"},
      {"measurement": "maximal inspiratory flow (Vimax) during IFL", "setting": "[4]; mouse, in vivo", "result": "increases"},
      {"measurement": "maximal inspiratory flow (Vimax) during obstructed (IFL) breathing, NREM sleep", "setting": "[4]; mouse, in vivo", "result": "reversals of morphine-induced reductions"},
      {"measurement": "minute ventilation (VE), non-flow limited respiration, NREM sleep", "setting": "[4]; mouse, in vivo", "result": "increase"},
      {"measurement": "minute ventilation during IFL (VE IFL)", "setting": "[4]; mouse, in vivo", "result": "increases"},
      {"measurement": "minute ventilation during obstructed (IFL) breathing, NREM sleep", "setting": "[4]; mouse, in vivo", "result": "reversals of morphine-induced reductions"},
      {"measurement": "non-flow limited breathing (NFL), respiratory depression", "setting": "[4]; mouse, in vivo", "result": "prevented"},
      {"measurement": "number of apneic events during NREM sleep", "setting": "[4]; mouse, in vivo", "result": "decreased"},
      {"measurement": "respiratory depression (minute ventilation, VE)", "setting": "[4]; mouse, in vivo", "result": "prevented"},
      {"measurement": "respiratory rate", "setting": "[4]; mouse, in vivo", "result": "increasing"},
      {"measurement": "respiratory rate during NFL breathing", "setting": "[4]; mouse, in vivo", "result": "did not change"},
      {"measurement": "tidal volume (VT)", "setting": "[4]; mouse, in vivo", "result": "increasing"},
      {"measurement": "tidal volume during NFL breathing", "setting": "[4]; mouse, in vivo", "result": "0.44±0.03"},
      {"measurement": "signaling (STAT3 phosphorylation) in dorsal medulla, RVLM, CC, DMV, NA, XII", "setting": "[6]; IN leptin single dose, one hour", "result": "increased"},
      {"measurement": "number of pSTAT3-positive cells in the hypothalamus and medulla", "setting": "[6]; IN leptin vs IP leptin and vehicle groups", "result": "highest"},
      {"measurement": "signaling (STAT3 phosphorylation) in dorsal medulla or RVLM", "setting": "[6]; IP leptin single dose, one hour", "result": "no effect"},
      {"measurement": "ODI (number of oxyhemoglobin desaturations ≥4%/hour)", "setting": "[7]", "result": "dramatic decrease"},
      {"measurement": "maximal inspiratory flow (Vimax) during flow limited obstructed breathing", "setting": "[7]", "result": "increased"},
      {"measurement": "minute ventilation (VE) during flow limited obstructed breathing", "setting": "[7]", "result": "increased"},
      {"measurement": "non-flow limited breathing", "setting": "[7]", "result": "increased"},
      {"measurement": "action potentials in HGNs associated with each burst", "setting": "[2]", "result": "3-4 action potentials"},
      {"measurement": "effect on LepR^b+ neurons (firing)", "setting": "[8]", "result": "excited"},
      {"measurement": "plasma leptin levels", "setting": "[9]", "result": "did not increase"},
      {"measurement": "spontaneous excitatory post-synaptic currents (EPSCs) in HGNs", "setting": "[3]", "result": "successfully reversed"},
      {"measurement": "EPSC frequency in HGNs", "setting": "[3]", "result": "restored"},
      {"measurement": "increase in blood pressure at night", "setting": "[10]; [12]", "result": 16, "unit": "mm Hg"},
      {"measurement": "increase in blood pressure during the day (9 am-9 pm, light phase)", "setting": "[10]; [12]", "result": 13, "unit": "mm Hg"},
      {"measurement": "leptin-mediated increase in blood pressure after carotid body (CB) denervation", "setting": "[10]; SC leptin 120 μg/day, not abolished by sham surgery", "result": "completely abolished"},
      {"measurement": "hypoxic ventilatory response (HVR, ΔVE/ΔFiO2)", "setting": "[11]; 10% O2 vs room air, saline pump 0.23", "result": 0.31, "unit": "ml/minutes/grams/ΔFiO2"},
      {"measurement": "minute ventilation (VE)", "setting": "[11]; wakefulness, saline pump 1.1", "result": 1.5, "unit": "ml/minutes/grams"}
    ]}
  ]
}
